Tests used:
human GPR52 [1] = target: T1, human GPR52 (Homo sapiens, UniProt Q9Y2T5); assay: GPR52 Agonist Functional cAMP Assay; conditions: pEC50 average, HEKf cells infected with human GPR52 BacMam virus; cAMP HTRF; 30 min at 37° C.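 Also: HEKf cells transduced with GPR52 BacMam for 24 h, 2000 per well, exposed to compounds 30 min at 37° C with 0.5 mM IBMX, cAMP read by HTRF.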
Protocol: (§1) Following BacMam infection, cells were pelleted by centrifugation (335 g, 5 min), resuspended in cell freezing medium (Sigma) and frozen at −150° C. until required. On experiment day, 25 nL GPR52 compound dilutions, prepared in DMSO, were stamped onto proxiplates (PerkinElmer) by a LabCyte ECHO acoustic dispenser. Frozen cells were thawed and resuspended in assay stimulation buffer (Cisbio) containing 0.5 mM 3-iso-butyl-1-methylxanthine (IBMX, Sigma) to achieve a density of 2000 cells per well. 10 μl cells were added to assay plates using a Multidrop Combi Reagent Dispenser (ThermoFisher) before centrifugation (335 g, 1 min). Cells were incubated with compounds at 37° C. for 30 min prior to addition of cAMP detection reagents (HiRange cAMP kit, Cisbio) which were prepared according to the manufacturer's instructions. Plates were shaken for 1 h at room temperature before reading on a PHERAstar FS plate reader (BMG Labtech) using standard HTRF settings.

human GPR52 [2] = target: T1, human GPR52
Protocol: as §1

[3] = Pharmacokinetic profiling in rat (IV and PO); type: in vivo, male Sprague-Dawley rats; conditions: male, Sprague-Dawley, plasma, n = 3, mean ± standard deviation
Protocol: The pharmacokinetic profiles of Example 1 were assessed in male Sprague-Dawley rats via intravenous (IV) and oral (per os, PO) routes of delivery. Pharmacokinetic data (mean values±standard deviation) for Example 1 of the invention are detailed in Table 5. Methods: For pharmacokinetic analysis, groups of three male Sprague-Dawley rats, ranging in weight between 200 and 230 g, were administered a single dose of Example 1 via IV or PO route, using the doses, dose volumes and vehicles specified in Table 5. […] WinNonlin v8.2 statistics software (Pharsight Corporation, California, USA) was used to generate pharmacokinetic parameters using non-compartmental analysis.

[4] = test system: D-amphetamine-induced hyperlocomotor response; assay: Amphetamine-induced locomotor activity in rat; type: in vivo, male Sprague-Dawley rats; conditions: 10 mg/kg PO, 60 min before D-amphetamine SC; activity over two hours
Protocol: The rat amphetamine-induced locomotor hyperactivity test is used to model the enhanced mesolimbic dopaminergic activity thought to contribute to psychosis in humans. […] Male Sprague-Dawley rats (200-250 g) were housed in groups with a 12 h light/dark cycle (lights on at 07.00), at an ambient temperature of 21±2° C. and with standard pelleted diet and water ad libitum. Testing was carried out in the light phase. On the day of the experiment, animals were habituated to the locomotor cages for a 60-minute period.
Locomotor activity was assessed for a two hour period after D-amphetamine treatment. Data are back-transformed means, adjusted for differences between treatment groups in activity during the 30 minutes prior to treatment with test compound or vehicle (n=10-12). Analysis was by general linear model with treatment, cohort and rack as factors. SEMs were calculated from the residuals of the statistical model.
Significant differences vs D-amphetamine are represented as *p<0.05, **p<0.01, ***p<0.001.

[5] = Brain penetration in rat (unbound brain-to-plasma ratio, IV); type: in vivo, male Sprague-Dawley rats; conditions: male, Sprague-Dawley, brain and plasma, 1 mg/kg, 10 min post-dose, n = 3
Protocol: Plasma and brain exposure were evaluated to assess the brain penetration of Example 1, following IV administration. Unbound brain-to-plasma ratio (Kp,uu) was calculated, as detailed in Table 5, following experimental determination of binding in rat plasma and brain homogenate. Methods: For brain penetration assessment, male Sprague-Dawley rats (n=3) were administered a single 1 mg/kg dose (formulated in 10% DMAC+10% Solutol HS15+80% saline) via the IV route. After 10 min post-dose, animals were sacrificed and brains extracted, homogenised with 2 volumes (w/v) of 50 mM sodium phosphate buffer (pH 7.4), and analysed by LC-MS/MS. Blood samples were removed at the same time point via tail vein bleed, centrifuged and the plasma analysed by LC-MS/MS. To permit calculation of unbound brain-to-plasma ratio (Kp,uu), test compound binding in rat plasma and brain homogenate was performed, using Rapid Equilibrium Dialysis (RED). […] Fraction unbound (Fu) in plasma and brain was calculated using the following formula, then used to correct total plasma and brain concentrations to derive the Kp,uu: Fraction bound=(Total plasma or brain ratio)−(Total buffer ratio)/Total plasma or brain ratio Fraction unbound (Fu,brain or plasma)=1−Fraction bound For correction of dilution in brain binding assay: Undiluted Fu,brain=(1/dilution factor)/((1/Fv diluted))−1)+(1/dilution factor) Where dilution factor=4

[6] = test system: subchronic PCP induced cognitive deficit; assay: Subchronic PCP-induced reversal learning deficit in rat; type: in vivo, female Lister Hooded rats; conditions: for reversal of subchronic PCP reversal learning deficit (percent correct responding, reversal phase): vs vehicle-treated subchronic PCP group; for effect on total number of lever presses: scPCP treated rats
Protocol: Testing was carried out in the light phase. Rats underwent operant training firstly to press the left/right lever for a food reward in the presence or absence of a visual cue, and then to respond to the opposite contingency. The reversal learning task was introduced as follows. On the day before each reversal task session, a full 30-minute operant training session was conducted in order to ensure stable responding. In the initial task, animals were first exposed to a five-minute period during which the contingency (cue position relative to active lever) was the same as for the operant training session. This was followed by a 2-minute time-out period, which was signalled by the house-light being turned off. In the subsequent 5-minute period (reversal task), the contingency was reversed. Responses made on the correct and incorrect levers were recorded. Animals undertook several of these reversal learning task sessions before the beginning of the drug studies in order to ensure that they attained a stable level of performance in both phases of the task. […] At this stage, training ceased and rats were treated with PCP (2 mg/kg, IP or vehicle 0.9% saline, IP) for 7 days followed by at least 7-days washout period.
In the initial phase, the reward contingency was the same as the previous day and in the reversal phase the reward contingency was reversed.
Data are presented as mean total number of lever presses (+SEM) and percent correct response (+SEM). […] Statistical significance was assumed when P<0.05 and was determined as follows: one-way ANOVA (IBM SPSS Statistics 22) was performed in order to detect main effect of drug treatment in the initial and reversal tasks. Where a significant effect was detected, a post-hoc LSD t-test was performed in order to compare treatment groups versus the appropriate control in the reversal phase of the test.
Data are shown as mean±s.e.m. % correct responding (n=8-10) and were analysed by ANOVA and post-hoc Student's t-test.
Data are shown as the mean total number of lever presses, correct responses are shown as clear bars and incorrect responses are shown as shaded bars (n=8-10).

[7] = 6 mg/kg IP, 60 min prior to testing

T1 sequence (Q9Y2T5 whole entry): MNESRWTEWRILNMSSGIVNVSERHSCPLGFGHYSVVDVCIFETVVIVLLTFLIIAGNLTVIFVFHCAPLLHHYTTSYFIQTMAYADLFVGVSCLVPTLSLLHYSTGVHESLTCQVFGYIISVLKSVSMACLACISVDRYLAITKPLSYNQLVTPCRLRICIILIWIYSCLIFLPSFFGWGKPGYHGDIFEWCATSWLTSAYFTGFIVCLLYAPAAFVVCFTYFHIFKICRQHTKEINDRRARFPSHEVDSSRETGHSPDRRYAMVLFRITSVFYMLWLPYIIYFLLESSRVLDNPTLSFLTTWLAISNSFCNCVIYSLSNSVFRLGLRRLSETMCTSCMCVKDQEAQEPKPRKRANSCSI

EC50 (human GPR52 [1]) [nM]	Emax (%) (human GPR52 [2])	SMILES	also measured
1580	72	O=C1NCCc2c1cnn2-c1ccnc(C(O)c2cc(F)cc(C(F)(F)F)c2)c1 (single isomer, unassigned) [Example 36 Isomer 1, 1-(2-((3-fluoro-5-(trifluoromethyl)phenyl)(hydroxy)methyl)pyridin-4-yl)-1,5,6,7-tetrahydro-4H-pyrazolo[4,3-c]pyridin-4-one]	–
251	94	O=C1NCCc2c1cnn2-c1ccnc(C(O)c2cc(F)cc(C(F)(F)F)c2)c1 (single isomer, unassigned) [Example 36 Isomer 2, 1-(2-((3-fluoro-5-(trifluoromethyl)phenyl)(hydroxy)methyl)pyridin-4-yl)-1,5,6,7-tetrahydro-4H-pyrazolo[4,3-c]pyridin-4-one]	–

Further lines, the compound ahead of its results:

SMILES	EC50 (human GPR52 [1]) [nM]	Emax (%) (human GPR52 [2])	also measured
Cc1nn(-c2ccnc(C(O)c3cc(F)cc(C(F)(F)F)c3)c2)c2c1C(=O)NCC2 (single isomer, unassigned) [117 Isomer 2, 1-(2-((3-fluoro-5-(trifluoromethyl)phenyl)(hydroxy)methyl)pyridin-4-yl)-3-methyl-1,5,6,7-tetrahydro-4H-pyrazolo[4,3-c]pyridin-4-one]	25.1	103	–
Cc1nn(-c2cc(C(O)c3cc(F)cc(C(F)(F)F)c3)ccn2)c2c1C(=O)NCC2 (single isomer, unassigned) [118 Isomer 2, 1-(4-((3-fluoro-5-(trifluoromethyl)phenyl)(hydroxy)methyl)pyridin-2-yl)-3-methyl-1,5,6,7-tetrahydro-4H-pyrazolo[4,3-c]pyridin-4-one]	7.94	101	–
CC1Cc2c(cnn2-c2ccnc(Cc3cc(F)cc(C(F)(F)F)c3)c2)C(=O)N1 (single isomer, unassigned) [Example 40 Isomer 2, 1-(2-(3-fluoro-5-(trifluoromethyl)benzyl)pyridin-4-yl)-6-methyl-1,5,6,7-tetrahydro-4H-pyrazolo[4,3-c]pyridin-4-one]	126	83	–
O=C1NCCc2c1cnn2-c1ccnc(Cc2cc(F)cc(C(F)(F)F)c2)c1 [Example 1, 1-(2-(3-fluoro-5-(trifluoromethyl)benzyl)pyridin-4-yl)-1,5,6,7-tetrahydro-4H-pyrazolo[4,3-c]pyridin-4-one]	–	–	clearance ([3]; Rat IV, 1 mg/kg): 16.4 ± 1 mL/min/kg; bioavailability ([3]; Rat PO, 3 mg/kg): 40.4 ± 6%; reduction of the D-amphetamine-induced hyperlocomotor response [4]: reached statistical significance at 10 mg/kg; Kp uu at 10 min [5]: 0.35 ± 0.03; reversal of subchronic PCP reversal learning deficit (percent correct responding, reversal phase) ([6]; 10 mg/kg PO, 2 h prior to testing): significantly (P<0.05−P<0.001) reversed the deficit; reversal of subchronic PCP reversal learning deficit (percent correct responding, reversal phase) ([6]; 30 mg/kg PO, 2 h prior to testing): significantly (P<0.05−P<0.001) reversed the deficit; effect on total number of lever presses ([6]; 3, 10 and 30 mg/kg PO, 2 h prior to testing): no significant effects
Cc1cc(-n2nc(Cc3cc(F)cc(C(F)(F)F)c3)nc2C)ccc1C(N)=O [FTBMT, reference compound]	–	–	reduction of the D-amphetamine-induced hyperlocomotor response [4]: showed a trend towards a reduced D-amphetamine-induced hyperlocomotor response but statistical significance was not reached
Oc1cc2c(cc1O)C(c1ccccc1)CNCC2 (centres unmarked) [SKF-38393, reference compound]	–	–	effect on total number of lever presses [6, 7]: no significant effects; reversal of subchronic PCP reversal learning deficit (percent correct responding, reversal phase) [6, 7]: significantly (P<0.05−P<0.001) reversed the deficit
